Results published in patent publication US4221909A, “P-Acetamidobenzoic acid salts of 9-(hydroxyalkyl) purines” (Sloan-Kettering Institute for Cancer Research, priority 1978, dated 1980).

Columns and labels:
Type in all cases: cell-based
[1] = tested on: Mouse spleen cells; assay: Mitogen Induced (Con A) Mouse Lymphocyte Proliferation
Excerpt: (§1) The following three assay procedures are used to evaluate the ability of the test substances to modulate the activity of several classes of cells in the immune system. In these systems it is possible to identify both immunopotentiating activity (evidence by an enhancement of the parameter examined) as well as immunosuppressant activity (evidenced by an inhibition of the parameter examined).
1. Mitogen--Induced Mouse Spleen Cell Assay--Mouse spleen cells contain a population of both B and T lymphocytes which can be stimulated by a number of foreign substances (e.g., plant mitogens such as Con A) to proliferate. This enhanced proliferation is an indication of enhanced cell mediated immunity. The method below describes the system used to evaluate test substances as immunopotentiators.
Concanavalin A (Calbiochem, La Jolla, Calif.), Lot #210073, lyophilized in NaCl, was prepared first as a 1% solution and diluted as a 2× concentration for each dilution (0.5, 1.0, 2.5 μg/ml).
Six to eight week old male Balb/c and C3 H inbred mice were obtained from the following sources: Flow Research Animals, Inc., Dublin, Va.; Charles River Breeding Laboratories, Wilmington, Mass.; Laboratory Supply Company, Indianapolis, Ind.; and Lionel Strong Foundation, San Diego, Calif.
Three to five mice were sacrificed by cervical dislocation and the spleens aseptically removed. Pooled spleens were minced and teased with sterile forceps; then strained through a double layer of nylon mesh. The cell suspension was washed once with 15 ml of RPMI 1640 supplemented with 5% fetal calf serum and antibiotics. Cells were cultured at a concentration of 10^6 cells/0.1 ml/well in micro-plates. Cultures were incubated in the presence or absence of mitogen in a humidified atmosphere containing 5% CO2 for 48 hours. The test compound was added to cultures at various concentrations concommitant with mitogen.
Proliferation was assayed by the degree of incorporation of 1.0 μCi of [^3 H] thymidine over an 18 hour incubation period. Cultures were harvested by a MASH unit (Otto Hiller Co., Madison, Wisconsin) and thymidine incorporation was assayed by liquid scintillation spectrometry. Cultures were performed in triplicate and data are expressed as means plus or minus the strandard error of the experimental means. Drug stimulation indices over control values were also calculated and portrayed graphically.

[2] = tested on: immune response; assay: Immunomodulation / immune response potentiation (summary); settings: for DIP.PAcBA potentiation of Immunpotentiation: DIP.PAcBA salt vs parent compound; for potentiation of the immune response: three test systems of Table 4
Excerpt: as §1
Table 4 above presents the results of an evaluation of a number of these subject compounds as potentiators of the immune response. Three different test systems were used. The first involves a measure of the ability of the test compound to enhance the ability of mouse lymphocytes to proliferate in response to a plant mitogen (Con A). The second involves measuring the ability of the test compounds to enhance human lymphocyte proliferation in response to a second plant mitogen (PHA). The third system measures the ability of these test substances to enhance macrophage proliferation in response to a natural lymphokine (MMF, Macrophage Mitogenic Factor).

[3] = tested on: guinea pig peritoneal macrophages; assay: Lymphokine Induced (MMF) Guinea Pig Macrophage Proliferation
Excerpt: as §1
3. The macrophage represents a subpopulation of white blood cells which is an important component of the immune system in control of both cellular and humoral immunity. The assay system described below evaluates the substances studied as potentiators of macrophage function.
Phytohemagglutinin(PHA) (HA-17) was purchased from Burroughs Wellcome. A preparation containing Macrophage Mitogen Factor (MMF) and Macrophage Activating Factor (MAF) was prepared from antigen-stimulated immune lymph node lymphocytes (guinea pig) as previously described by Hadden et al, Nature 257, 483-485 (1975). […] The active fraction was employed in both the proliferation and activation assays.
Ficoll-hypaque purified human peripheral blood lymphocytes were prepared and PHA-induced lymphocyte proliferation was assayed by the incorporation of tritiated thymidine as described in Hadden et al, Cell. Immunol. 20, 98-103 (1975). Each compound was analyzed in the presence of suboptimal, optimal and supraoptimal concentrations of PHA (0.001, 0.01, 0.1 units/ml respectively). Paraffin oil-induced guinea pig peritoneal macrophages were prepared and incubated as monolayer culture (>98% pure macrophages). Lymphokine (MMF)-induced proliferation was assayed by the incorporation of triturated thymidine at 3 and 5 days of culture as described, Hadden et al, Nature 257, 483-485 (1975). Lymphokine (MAF)-induced macrophage activation to kill Listeria monocytogenes following 5 days of culture in the presence or absence of MAF was performed during a 6 hour period as described in Hadden and England, Immunopharmacology, pages 87-100 (Plenum Press, 1977). Phagocytosis was quantitated during a 20-minute exposure to Listeria monocytogenes by counting the number of macrophages containing bacteria and the number of bacteria per phagocytic cell on gram stained monolayers in Labtek chambers. Intracellular killing of bacteria was evaluated by counting the number of cells containing bacteria and the number of bacteria/cell 6 hours after the initial 20 minute exposure. Parallel experiments in which macrophages were lysed and intracellular bacteria were cultured confirm the validity of bacterial activity determined by this manner in this sytem. The drugs were employed in each of the three systems over serial log concentration range in triplicate in the presence and absence of mitogen or lymphokine. Each type of experiment was performed at least three times. Previous experiments indicate a parallelism of response to pharmacologic modulation in the proliferation and activation assays.

Compound: CCCCCC[C@H]([C@H](C)O)n1cnc2c(=O)[nH]cnc21 (relative stereo) [NPT 15410]
- Maximum Percent Change, Mitogen Induced (Con A) Mouse Lymph. Prolif. ([1]; 1.0-10): 40%
- Maximum Percent Change, Mitogen Induced (Con A) Mouse Lymph. Prolif. ([1]; 10-100): 40%
- Maximum Percent Change, Mitogen Induced (Con A) Mouse Lymph. Prolif. ([1]; .01-1.0): 140%
- DIP.PAcBA potentiation of Immunpotentiation [2]: Yes
- potentiation of the immune response [2]: Significant potentiation
- Maximum Percent Change, Lymphokine Induced (MMF) Guinea Pig Mac. Prolif. ([3]; 1.0-10): 23%
- Maximum Percent Change, Lymphokine Induced (MMF) Guinea Pig Mac. Prolif. ([3]; .01-1.0): 12%

Compound: CCCCCCC(CO)n1cnc2c(=O)[nH]cnc21 (stereo not drawn) [NPT 15417]
- Maximum Percent Change, Mitogen Induced (Con A) Mouse Lymph. Prolif. ([1]; 1.0-10, listed as 15417): 0%
- Maximum Percent Change, Mitogen Induced (Con A) Mouse Lymph. Prolif. ([1]; 10-100, listed as 15417): 0%
- Maximum Percent Change, Mitogen Induced (Con A) Mouse Lymph. Prolif. ([1]; .01-1.0, listed as 15417): 0%
- Maximum Percent Change, Lymphokine Induced (MMF) Guinea Pig Mac. Prolif. ([3]; 1.0-10, listed as 15417): 13%
- Maximum Percent Change, Lymphokine Induced (MMF) Guinea Pig Mac. Prolif. ([3]; 10-100): -50%

Compound: CCCCCC[C@H]([C@H](C)O)n1cnc2c(=O)[nH]cnc21 (relative stereo) [NPT 15392, Erythro-9-(2-Hydroxy-3-Nonyl)Hypoxanthine]
- potentiation of the immune response [2]: Significant potentiation

Compound: CCCCCCC(CO)n1cnc2c(=O)[nH]cnc21 (stereo not drawn) [NPT 15418]
- Maximum Percent Change, Mitogen Induced (Con A) Mouse Lymph. Prolif. ([1]; 1.0-10, listed as 15418): 73%
- Maximum Percent Change, Mitogen Induced (Con A) Mouse Lymph. Prolif. ([1]; 10-100, listed as 15418): 26%
- Maximum Percent Change, Mitogen Induced (Con A) Mouse Lymph. Prolif. ([1]; .01-1.0, listed as 15418): 41%
- DIP.PAcBA potentiation of Immunpotentiation [2]: Yes
- potentiation of the immune response [2]: Significant potentiation
- Maximum Percent Change, Lymphokine Induced (MMF) Guinea Pig Mac. Prolif. ([3]; 1.0-10, listed as 15418): 80%
- Maximum Percent Change, Lymphokine Induced (MMF) Guinea Pig Mac. Prolif. ([3]; 10-100): -50%
- Maximum Percent Change, Lymphokine Induced (MMF) Guinea Pig Mac. Prolif. ([3]; .01-1.0): 12%
